Results from patent publication US12459951B2, “Compounds that interact with RAS superfamily proteins for treatment of cancers, inflammatory diseases, rasopathies, and fibrotic disease” (SHY Therapeutics, LLC, priority 2022, dated 2025).
Read-outs that look alike come from different tables or passages of the source.

Test system: MiaPaca-2 (expressing KRAS G12C mutant)
Test: Proliferation Assay (Cell Viability Assay)
Type: cell-based
Details: Homo sapiens, MIA PaCa-2
Outline: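 After 2–4 days' exposure at 37 °C, 5% CO2 to a single 10 μM final concentration or a dilution series (IC50), percent proliferation inhibition was derived from CellTiter 96 Aqueous One viability readings. The medium contained 0.3% DMSO and 10% FBS. KRAS G12C MiaPaca-2 cells were plated at 2000–5000/well the day before.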

[1] = read-out: Proliferation in MiaPaca-2: IC50

Row | IC50 [1] | IC50 (Proliferation assay, MiaPaca-2, read-out: MiaPaca-2 IC50 (nM) Pancreatic) | SMILES
1 | > 1000 nM |  | CO[C@H]1CC[C@H](Nc2nc(-c3nccn3C)nn3cc(-c4ccn(C)n4)c(C(=O)NCC(F)(F)F)c23)C1 (racemic) [Compound 181, 4-(((1S,3S)-3-Methoxycyclopentyl)amino)-2-(1-methyl-1H-imidazol-2-yl)-6-(1-methyl-1H-pyrazol-3-yl)-N-(2,2,2-trifluoroethyl)pyrrolo[2,1-f][1,2,4]triazine-5-carboxamide]
2 | > 1000 nM |  | CO[C@H]1CC[C@H](Nc2nc(-c3nccn3C)nn3cc(-c4ccn(C)n4)c(C(=O)NC4CC4)c23)C1 (racemic) [Compound 182, rac N-Cyclopropyl-4-(((1S,3S)-3-methoxycyclo-pentyl)amino)-2-(1-methyl-1H-imidazol-2-yl)-6-(1-methyl-1H-pyrazol-3-yl)pyrrolo[2,1-f][1,2,4]triazine-5-carboxamide]
3 | > 1000 nM |  | COCCNC(=O)c1c(-c2ccn(C)n2)cn2nc(-c3nccn3C)nc(N[C@H]3CC[C@H](OC)C3)c12 (racemic) [Compound 183, rac 4-(((1S,3S)-3-Methoxycyclo-pentyl)amino)-N-(2-methoxyethyl)-2-(1-methyl-1H-imidazol-2-yl)-6-(1-methyl-1H-pyrazol-3-yl)pyrrolo[2,1-f][1,2,4]triazine-5-carboxamide]
4 | > 1000 nM |  | COCCCNC(=O)c1c(-c2ccn(C)n2)cn2nc(-c3nccn3C)nc(N[C@H]3CC[C@H](OC)C3)c12 (racemic) [Compound 184, rac 4-(((1S,3S)-3-methoxycyclo-pentyl)amino)-N-(3-methoxypropyl)-2-(1-methyl-1H-imidazol-2-yl)-6-(1-methyl-1H-pyrazol-3-yl)pyrrolo[2,1-f][1,2,4]triazine-5-carboxamide]
5 | > 1000 nM |  | CO[C@H]1CC[C@H](Nc2nc(-c3nccn3C)nn3cc(-c4ccn(C)n4)c(C(=O)NCCN4CCOCC4)c23)C1 (racemic) [Compound 185, rac 4-(((1S,3S)-3-methoxycyclo-pentyl)amino)-2-(1-methyl-1H-imidazol-2-yl)-6-(1-methyl-1H-pyrazol-3-yl)-N-(2-morpholino-ethyl)pyrrolo[2,1-f][1,2,4]triazine-5-carboxamide]
6 | < 150 nM |  | COc1cc(Nc2nc(-c3nccn3C)nn3cc(-c4cccnc4)c(-c4cccnc4)c23)ncn1 [Compound 170, N-(6-Methoxypyrimidin-4-yl)-2-(1-methyl-1H-imidazol-2-yl)-5,6-di(pyridin-3-yl)pyrrolo[2,1-f][1,2,4]triazin-4-amine]
7 | > 1000 nM |  | CO[C@H]1C[C@H](Nc2nc(-c3nccn3C)nn3cc(-c4cccnc4)c(-c4cccnc4)c23)C1 [Compound 171, N-((1r,3r)-3-Methoxycyclobutyl)-2-(1-methyl-1H-imidazol-2-yl)-5,6-di(pyridin-3-yl)pyrrolo[2,1-f][1,2,4]triazin-4-amine]
8 | > 1000 nM |  | Cc1c(-c2ccn(C)n2)cn2nc(-c3nccn3C)nc(O)c12 [Compound 172, 5-Methyl-2-(1-methyl-1H-imidazol-2-yl)-6-(1-methyl-1H-pyrazol-3-yl)pyrrolo[2,1-f][1,2,4]triazin-4-ol]
9 | 510 to 1000 nM |  | CCNC(=O)c1c(-c2ccn(C)n2)cn2nc(-c3nccn3C)nc(Nc3cc(OC)ccn3)c12 [Compound 173, N-Ethyl-4-((4-methoxypyridin-2-yl)amino)-2-(1-methyl-1H-imidazol-2-yl)-6-(1-methyl-1H-pyrazol-3-yl)pyrrolo[2,1-f][1,2,4]triazine-5-carboxamide]
10 | 150 to 500 nM |  | COc1ccnc(Nc2nc(-c3nccn3C)nn3cc(-c4ccn(C)n4)c(C(=O)NCC(F)(F)F)c23)c1 [Compound 174, 4-((4-Methoxypyridin-2-yl)amino)-2-(1-methyl-1H-imidazol-2-yl)-6-(1-methyl-1H-pyrazol-3-yl)-N-(2,2,2-trifluoro-ethyl)pyrrolo[2,1-f][1,2,4]triazine-5-carboxamide]
11 | 150 to 500 nM |  | COc1ccnc(Nc2nc(-c3nccn3C)nn3cc(-c4ccn(C)n4)c(C(=O)NC4CC4)c23)c1 [Compound 175, N-Cyclopropyl-4-((4-methoxypyridin-2-yl)amino)-2-(1-methyl-1H-imidazol-2-yl)-6-(1-methyl-1H-pyrazol-3-yl)pyrrolo[2,1-f][1,2,4]triazine-5-carboxamide]
12 | 510 to 1000 nM |  | COCCNC(=O)c1c(-c2ccn(C)n2)cn2nc(-c3nccn3C)nc(Nc3cc(OC)ccn3)c12 [Compound 176, N-(2-Methoxyethyl)-4-((4-methoxypyridin-2-yl)amino)-2-(1-methyl-1H-imidazol-2-yl)-6-(1-methyl-1H-pyrazol-3-yl)pyrrolo[2,1-f][1,2,4]triazine-5-carboxamide]
13 | > 1000 nM |  | COc1ccnc(Nc2nc(-c3nccn3C)nn3cc(-c4ccn(C)n4)c(C(=O)NCCN(C)C)c23)c1 [Compound 177, N-(2-(Dimethylamino)ethyl)-4-((4-methoxypyridin-2-yl)amino)-2-(1-methyl-1H-imidazol-2-yl)-6-(1-methyl-1H-pyrazol-3-yl)pyrrolo[2,1-f][1,2,4]triazine-5-carboxamide]
14 | > 1000 nM |  | COc1ccnc(Nc2nc(-c3nccn3C)nn3cc(-c4ccn(C)n4)c(C(=O)N4CCCC4)c23)c1 [Compound 178, (4-((4-Methoxypyridin-2-yl)amino)-2-(1-methyl-1H-imidazol-2-yl)-6-(1-methyl-1H-pyrazol-3-yl)pyrrolo[2,1-f][1,2,4]triazin-5-yl)(pyrrolidin-1-yl)methanone]
15 | > 1000 nM |  | COc1ccnc(Nc2nc(-c3nccn3C)nn3cc(-c4ccn(C)n4)c(C(=O)N4CCOCC4)c23)c1 [Compound 179, (4-((4-Methoxypyridin-2-yl)amino)-2-(1-methyl-1H-imidazol-2-yl)-6-(1-methyl-1H-pyrazol-3-yl)pyrrolo[2,1-f][1,2,4]triazin-5-yl)(morpho-lino)methanone]
16 | > 1000 nM |  | Cc1c(-c2ccn(C)n2)cn2nc(-c3nccn3C)nc(Nc3cc(OCCNC(=O)CCCC[C@H]4SC[C@H]5NC(=O)N[C@H]54)ccn3)c12 [Compound 186, N-(2-((2-((5-Methyl-2-(1-methyl-1H-imidazol-2-yl)-6-(1-methyl-1H-pyrazol-3-yl)pyrrolo[2,1-f][1,2,4]triazin-4-yl)amino)pyridin-4-yl)oxy)ethyl)-5-((3aR,4R,6aS)-2-oxohexahydro-1H-thieno[3,4-d]imidazol-4-yl)pentanamide]
17 | > 1000 nM |  | Cn1ccnc1-c1nc(O)c2c(-c3ccccc3)c(-c3cccnc3)cn2n1 [Compound 189, 2-(1-Methyl-1H-imidazol-2-yl)-5-phenyl-6-(pyridin-3-yl)pyrrolo[2,1-f][1,2,4]triazin-4-ol]
18 | > 1000 nM |  | Cc1c(-c2ccn(C)n2)cn2nc(-c3nccn3C)nc(N)c12 [Compound 211, 5-Methyl-2-(1-methyl-1H-imidazol-2-yl)-6-(1-methyl-1H-pyrazol-3-yl)pyrrolo[2,1-f][1,2,4]triazin-4-amine]
19 | > 1000 nM |  | COc1ccnc(Nc2nc(-c3nccn3CCNC(=O)CCCC[C@H]3SC[C@H]4NC(=O)N[C@H]43)nn3cc(-c4ccn(C)n4)c(C)c23)c1 [Compound 216, N-(2-(2-(4-((4-methoxypyridin-2-yl)amino)-5-methyl-6-(1-methyl-1H-pyrazol-3-yl)pyrrolo[2,1-f][1,2,4]triazin-2-yl)-1H-imidazol-1-yl)ethyl)-5-((3aR,4R,6aS)-2-oxohexahydro-1H-thieno[3,4-d]imidazol-4-yl)pentanamide]
20 | 510 to 1000 nM |  | COc1cccc(-c2cn3nc(-c4nccn4C)nc(N[C@H]4C[C@H](OC)C4)c3c2-c2ccccc2)c1OC [Compound 219, 6-(2,3-Dimethoxyphenyl)-N-((1r,3r)-3-methoxycyclobutyl)-2-(1-methyl-1H-imidazol-2-yl)-5-phenylpyrrolo[2,1-f][1,2,4]triazin-4-amine]
21 | < 150 nM | 1 to 10 nM | Cc1c(-c2ccn(C)n2)cn2nc(-c3nccn3C)nc(Nc3cc(N4CCOCC4)ccn3)c12 [Compound 222, 5-Methyl-2-(1-methyl-1H-imidazol-2-yl)-6-(1-methyl-1H-pyrazol-3-yl)-N-(4-morpholinopyridin-2-yl)pyrrolo[2,1-f][1,2,4]triazin-4-amine]
22 | > 1000 nM |  | COc1ccnc(N(C)c2nc(-c3nccn3C)nn3cc(-c4ccn(C)n4)c(C)c23)c1 [Compound 223, N-(4-Methoxypyridin-2-yl)-N,5-dimethyl-2-(1-methyl-1H-imidazol-2-yl)-6-(1-methyl-1H-pyrazol-3-yl)pyrrolo[2,1-f][1,2,4]triazin-4-amine]
23 | < 150 nM |  | COc1ccc(Nc2nc(-c3nccn3C)nn3cc(-c4ccn(C)n4)c(C)c23)nc1 [Compound 224, N-(5-Methoxypyridin-2-yl)-5-methyl-2-(1-methyl-1H-imidazol-2-yl)-6-(1-methyl-1H-pyrazol-3-yl)pyrrolo[2,1-f][1,2,4]triazin-4-amine]
24 | > 1000 nM |  | COc1ccc(N(C)c2nc(-c3nccn3C)nn3cc(-c4ccn(C)n4)c(C)c23)nc1 [Compound 225, N-(5-Methoxypyridin-2-yl)-N,5-dimethyl-2-(1-methyl-1H-imidazol-2-yl)-6-(1-methyl-1H-pyrazol-3-yl)pyrrolo[2,1-f][1,2,4]triazin-4-amine]
25 | < 150 nM |  | Cc1ccc(Nc2nc(-c3nccn3C)nn3cc(-c4ccn(C)n4)c(C)c23)nc1 [Compound 226, 5-Methyl-2-(1-methyl-1H-imidazol-2-yl)-6-(1-methyl-1H-pyrazol-3-yl)-N-(5-methylpyridin-2-yl)pyrrolo[2,1-f][1,2,4]triazin-4-amine]
26 | < 150 nM |  | Cc1c(-c2ccn(C)n2)cn2nc(-c3nccn3C)nc(Nc3ccc(N(C)C)cn3)c12 [Compound 227, N5,N5-Dimethyl-N2-(5-methyl-2-(1-methyl-1H-imidazol-2-yl)-6-(1-methyl-1H-pyrazol-3-yl)pyrrolo[2,1-f][1,2,4]triazin-4-yl)pyridine-2,5-diamine]
27 | < 150 nM |  | Cc1c(-c2ccn(C)n2)cn2nc(-c3nccn3C)nc(Nc3ccc(N4CCCC4)cn3)c12 [Compound 228, 5-Methyl-2-(1-methyl-1H-imidazol-2-yl)-6-(1-methyl-1H-pyrazol-3-yl)-N-(5-(pyrrolidin-1-yl)pyridin-2-yl)pyrrolo[2,1-f][1,2,4]triazin-4-amine]
